“Also recorded” adds a separate entry of the source.
Tests used:
[1] = system: Lewis rat NMO disease models; assay: NMO animal model: NMO patient serum and complement injected intrathecally, behavioral scoring; format: in vivo; details: for Behavioral score: intragastric daily, ACT001 60 mg/kg, hormone 30 mg/kg
Experimental: Meanwhile, before establishing NMO animal models, firstly, the spinal intrathecal catheterization was performed on Lewis rats, wherein an outlet could be placed at the spinal cord and at the first lumbar vertebra of the rat by controlling the length (7 cm) of a PE10 soft tube. For the Lewis rats after spinal intrathecal catheterization, they had no difference in behavior from normal rats the next day after the operation. Successfully modeled rats were divided into three groups, and 10 μL of each of the serum and complement system of an NMO patient was injected into the soft tubes in the rats for which the intubation was successful, and the supplementation was performed every four days. The administration regimen was as follows: the model control group (6 animals) was intragastrically administered normal saline every day for 15 consecutive days; the hormone group (8 animals) was intragastrically administered the methylprednisolone […] for injection every day at a dose of 30 mg/kg for 15 consecutive days; and the ACT001 group (6 animals) was intragastrically administered the ACT001 solution every day at a dose of 60 mg/kg for 15 consecutive days. The animal state was observed daily, and behavioral scores were recorded based on animal symptoms.
10 μL of each of the serum and complement system of an NMO patient was injected into the soft tubes in the rats for which the spinal intrathecal catheterization was successful, and the supplementation was performed every four days, thus establishing the NMO animal models. Model animals were randomized into three groups, namely: the normal saline group, the hormone (methylprednisolone sodium succinate for injection) group and the ACT001 group, and the administration regimen is as follows:
Behavioral scoring was performed based on animal symptoms.
The scoring criteria were as follows: • 0 point: no clinical symptoms; • 1 point: decreased tail tension or mild gait clumsiness; • 2 points: no tail tension or moderate gait abnormality; weakness of both hind limbs and recovery after being turned over passively; • 3 points: paralysis of both hind limbs. no recovery after being turned over passively, but capable of moving after stimulation; • 4 points: paralysis of both hind limbs. paralysis or weakened muscle strength of the forelimbs with urinary and fecal incontinence; • 5 points: moribund state or dead.
Symptoms between two stages were measured as ±0.5.

[2] = system: TNF-α release by LPS-activated BV-2 cells; assay: TNF-α release/expression after LPS activation of BV-2 (ELISA); format: cell-based; details: for TNF-α expression in BV-2 cells: 1 μg/mL LPS
Experimental: (§1) BV2 cells were digested, counted and plated in a 24-well plate at 1 mL and 40,000 cells per well, and the cells were then incubated overnight in an incubator at 5% CO2 and 37° C. 1 μg/mL LPS was added into each well for 1 h of action, and then ACT001 at different concentrations was added. Five experimental groups were set, namely: (1) control group; (2) ACT001-2.5 μM group; (3) ACT001-5 μM group; (4) ACT001-10 μM group; and (5) ACT001-20 μM group. After 24 h of action, the drug action was completed, the supernatant was collected and centrifuged at 12,000 rpm for 20 min, and then ELISA was performed according to the kit instructions.

[3] = system: IL-6 release by LPS-activated BV-2 cells; assay: IL-6 release/expression after LPS activation of BV-2 (ELISA); format: cell-based; details: for IL-6 expression in BV-2 cells: 1 μg/mL LPS
Experimental: as §1, with “and 20,000” for “and 40,000”, “After 8” for “After 24”
as §1

[4] = system: NO release by LPS-activated BV-2 cells; assay: NO release after LPS activation of BV-2; format: cell-based
Description: 5. FIG. 5 is a graph showing the effect of ACT001 on NO expression (*P<0.05, ** P<0.01, *** P<0.001).

[5] = system: BV2 cells; assay: Proliferation activity of microglial cell BV2 (MTT and CCK8 methods); format: cell-based; details: Mus musculus
Description: We then intended to use ACT001 for treating neuromyelitis optica.

[6] = LPS-activated BV-2, ACT001 10 μM, vs control group, fumarate
[7] = LPS-stimulated microglial cells, concentration not given, fumarate

SMILES | Behavioral score ([1]; day 0 of treatment) | Behavioral score ([1]; day 1 of treatment) | Behavioral score ([1]; day 2 of treatment) | Behavioral score ([1]; day 3 of treatment) | Behavioral score ([1]; day 4 of treatment) | Behavioral score ([1]; day 5 of treatment) | Behavioral score ([1]; day 6 of treatment) | Behavioral score ([1]; day 7 of treatment) | Behavioral score ([1]; day 8 of treatment) | Behavioral score ([1]; day 9 of treatment) | Behavioral score ([1]; day 10 of treatment) | Behavioral score ([1]; day 11 of treatment) | Behavioral score ([1]; day 12 of treatment) | Behavioral score ([1]; day 13 of treatment) | Behavioral score ([1]; day 14 of treatment) | other results
C[C@H]1C[C@@H]2[C@H]([C@@H](O)C[C@@]3(C)[C@H]2CC[C@]3(O)C(=O)COC(=O)CCC(=O)O)[C@@]2(C)C=CC(=O)C=C12 [Hormone, methylprednisolone sodium succinate, reference compound] | 0.00 ± 0.00 points | 0.63 ± 0.64 points | 0.50 ± 0.38 points | 0.44 ± 0.32 points | 0.13 ± 0.23 points | 1.75 ± 0.46 points | 0.88 ± 0.23 points | 0.63 ± 0.35 points | 0.38 ± 0.23 points | 2.06 ± 0.42 points | 2.06 ± 0.42 points | 0.88 ± 0.35 points | 2.19 ± 0.26 points | 2.19 ± 0.59 points | 1.00 ± 0.38 points | Behavioral score (Table 3, major research results) ([1]; 20 Lewis rats, female, intragastrically once daily for 15 times): group was 2.0 ± 0.3. points; Behavioral score ([1]; day 15 of treatment): 2.31 ± 0.26 points; Behavioral score ([1]; day 15 of treatment, listed as hormone): 2.31±0.26 points
CC1=C2CC[C@@](C)(O)[C@@H]2[C@H]2OC(=O)[C@@H](CN(C)C)[C@@H]2CC1.O=C(O)/C=C/C(=O)O [ACT001, (3R,3aS,9R,9aS,9bS)-3-((dimethylamino)methyl)-9-hydroxy-6,9-dimethyl-3,3a,4,5,7,8,9,9a-octahydroazuleno[4,5-b]furan-2(9bH)-one fumarate] | 0.00 ± 0.00 points | 0.42 ± 0.20 points | 0.17 ± 0.26 points | 0.17 ± 0.26 points | 0.00 ± 0.00 points | 1.17 ± 0.68 points | 1.00 ± 0.45 points | 0.83 ± 0.68 points | 0.33 ± 0.26 points | 2.08 ± 0.86 points | 1.25 ± 0.61 points | 0.50 ± 0.00 points | 2.00 ± 0.32 points | 1.92 ± 0.38 points | 1.17 ± 0.26 points | TNF-α expression in BV-2 cells ([2]; ACT001 2.5, 5 and 10 μM dose groups, dose-dependent trend (FIG. 4)): reduce TNF-α expression; TNF-α expression in BV-2 cells ([2]; all ACT001 dose groups (2.5-20 μM), p<0.001 vs control (text on FIG. 3)): significantly reduced; release/expression of TNF-α [2, 6]: remarkably reduce; also recorded: significantly reduced; release of TNF-α [2, 7]: significantly reduced; IL-6 expression in BV-2 cells ([3]; ACT001 20 μM, p<0.001 vs control): significantly reduced; IL-6 expression in BV-2 cells ([3]; all ACT001 groups (2.5, 5, 10, 20 μM), dose-dependent trend): reduce IL-6 expression; release/expression of IL-6 [3, 6]: remarkably reduce; also recorded: significantly reduced; release of IL-6 [3, 7]: significantly reduced; tolerance of animals during administration ([1]; ACT001 60 mg/kg intragastric daily, 15 days): well tolerated; disease symptoms / behavioral scores compared to the normal saline control group ([1]; ACT001 60 mg/kg intragastric daily, 15 days, fumarate, 60 mg/kg): significantly alleviated; also recorded: significantly reduce the behavioral scores; also recorded: significantly relieve clinical symptoms; effect compared to the hormone treatment group ([1]; ACT001 60 mg/kg vs methylprednisolone 30 mg/kg, intragastric, 15 days, fumarate): not weaker than that of hormone; also recorded: basically equivalent; Behavioral score ([1]; day 15 of treatment, fumarate): 2.00±0.32 points; pathological release of microglial cells NO ([4]; ACT001 5 μM (FIG. 5)): significantly could reduce; release of NO ([4]; LPS-activated microglia, ACT001 10 μM): remarkably reduce; release of NO [4, 7]: significantly reduced; IC50 ([5]; BV-2, MTT/CCK8, read-out: IC50, inhibition of proliferation of BV2 cells): 23.6 µM; IC90 ([5]; BV-2, read-out: IC90, in vitro activity inhibition against BV2 cells): 99.1 ± 10.2 µM

— patent US12728112B2, “Application of sesquiterpene lactone in preparing drug for treating optic neuritis” (ACCENDATECH LUOYANG CO., LTD., priority 2020, dated 2026)
